From paper PMC3901029 (Biochemical and biophysical research communications, 2013)

Target: MJ (MJ0796-G174W-G14C, single-Cys mutant based on Cys-less MJ0796; isolated nucleotide-binding domain) (Methanocaldococcus jannaschii, UniProt Q58206, C128I/C53G/G14C/G174W/K44A)
Assay: Trp174 fluorescence quenching

MJ (MJ0796-G174W-G14C, single-Cys mutant based on Cys-less MJ0796; isolated nucleotide-binding domain), sequence (Q58206 whole entry G14C/K44A/C53G/C128I/G174W, the tested form may be a part): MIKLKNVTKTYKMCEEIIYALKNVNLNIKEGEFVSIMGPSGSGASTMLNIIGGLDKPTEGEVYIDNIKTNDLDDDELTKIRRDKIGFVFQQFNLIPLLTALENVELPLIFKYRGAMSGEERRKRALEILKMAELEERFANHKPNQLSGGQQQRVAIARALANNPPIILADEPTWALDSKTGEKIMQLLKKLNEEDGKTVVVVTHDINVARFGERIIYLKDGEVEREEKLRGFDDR

Kd: 70 ± 13 µM
Structure (SMILES): Nc1ncnc2c1ncn2[C@@H]1O[C@H](COP(=O)(O)OP(=O)(O)OP(=O)(O)O)[C@@H](O)[C@H]1O [ATP]
